Measurements: patent US20150152122A1, “TYROSINASE INHIBITORS” (Avon Products, Inc., priority 2013, published 2015)

Experiments:
Mushroom tyrosinase = Mushroom tyrosinase assay; assay type: biochemical; conditions: percent change vs DMSO vehicle, L-Tyrosine substrate, 25° C., 30 min
Experimental: Mushroom tyrosinase and L-Tyrosine were obtained from Sigma-Aldrich, Inc. (St. Louis, Mo.). The enzyme activity was measured in buffer containing 100 mM phosphate buffer pH 6.8, 5% absolute ethanol, 2 micrograms/milliiliter mushroom tyrosinase, and 0.2 mg/ml L-Tyrosine. The reaction (conversion of L-Tyrosine to DOPAchrome) was conducted in triplicates at 25° C. for 30 min, and absorbance was then measured at 492 nm. Kojic Acid was used as a positive control inhibitor in these assays. Percent change in tyrosinase activity relative to vehicle control was calculated.

B16 mouse melanoma cells = test: Inhibition of melanin production in B16 melanoma cell assay; assay type: cell-based; conditions: 4 days, normalized to cell viability (MTT), alpha MSH 2 ng/ml
Experimental: The effects of various test compounds on melanin levels were determined by performing assays using B16 melanoma cells. These cells are known to constitutively produce melanin and are a commonly utilized and accepted model system for monitoring the inhibition of melanin synthesis. The B16 mouse melanoma cells were seeded (ATCC, cat. #: CRL-6475) into 96-well tissue culture-treated plates (BD Falcon) and treated with test actives or controls in phenol red free DMEM (Mediatech; cat. #: 17-205-CV) with 2 nanogram/ml of alpha MSH (Fluka; cat #: 63605). The cells were examined for their ability to modulate pigment formation. […] Tests were performed in 6 replicates each. Following the treatment period (4 days), the level of pigment produced or melanin synthesized was quantified by reading the absorbance at 540 nm using a standard microplate reader (Tecan Group Ltd.).
After quantifying the amount of melanin, cell viability was determined using the MTT conversion method. The MTT conversion method measures the reduction of the MTT dye from a yellow colored, water-soluble, tetrazolium salt to a bluish-purple colored insoluble formazan precipitate by NAD(P)H-dependent microsomal dehydrogenase enzymes, which only function in viable cells. The intensity of the blue color is indicative of cell viability. After quantifying the amount of melanin pigment produced, the cells were exposed to MTT dye solution (1 mg/ml) for two to three hours. Formazan material was solubilized with reagent alcohol (95% ethanol: 5% isopropanol) and shaken on an orbital shaker for 15-30 minutes. MTT dye uptake and conversion by viable cells were determined by measuring the extracted formazan at 570 nm using a microplate reader. Total pigmentation was calculated, normalized to cell viability values and expressed as the average percent change in melanin activity relative to control of the six experiments performed.

[1] = test system: Human Epidermal Melanocytes, neonatal, darkly pigmented donor (HEMn-DP); test: Human Primary Melanocyte Pigmentation Assay (HEMn-DP); assay type: cell-based; conditions: 5 days, normalized to cell viability
Experimental: The effects of various test compounds on melanin productions were determined by performing assays using Human Epidermal Melanocytes, neonatal, darkly pigmented donor (HEMn-DP). The HEMn-DP cells were seeded (Invitrogen; cat. #: C-202-5C) into 6-well tissue culture-treated plates (BD Falcon) and treated with test actives or controls in Medium 254 (Invitrogen; cat. #: M-254-500) supplemented with 1% HMSG (Invitrogen; cat. #: S-002-5) and 1% PS. The cells were examined for their ability to modulate pigment formation. […] Tests were performed in triplicates each. Following the treatment period (5 days), supernatants were aspirated. The melanin was extracted with 0.5 ml of 2N NaOH for 30 minutes at 80° C. The level of melanin synthesized within the cells was quantified by reading the absorbance at 405 nm using a standard microplate reader (Tecan Group Ltd.).
The cell viability was determined using the MTT conversion method. The MTT conversion method measures the reduction of the MTT dye from a yellow colored, water-soluble, tetrazolium salt to a bluish-purple colored insoluble formazan precipitate by NAD(P)H-dependent microsomal dehydrogenase enzymes, which only function in viable cells. […] MTT dye uptake and conversion by viable cells were determined by measuring the extracted formazan at 570 nm using a microplate reader. Total pigmentation was calculated and normalized to cell viability values. […]

[2] = test system: MELANODERM (MEL-300-B) human skin model; test: 3D skin equivalent tissue pigmentation assay (MELANODERM); assay type: cell-based; conditions: topical 10 μl, Day 11
Experimental: The effect of the tyrosinase inhibitors on melanin levels was investigated using a MELANODERM™ (MEL-300-B, MatTek Corp., Ashland, Mass.) human skin model. MELANODERM™ is a viable reconstituted three-dimensional human skin equivalent containing melanocytes derived from African-American donors. Tissues were maintained in culture medium EPI-100-NMM-113 at 37° C. as recommended by the manufacturer.
The compounds were dissolved in either 69% propylene glycol+30% EtOH+1% DMSO or 70% propylene glycol+30% EtOH desired concentration (w/v). 10 μl of the solution was applied topically to the MELANODERMTM tissue while culture medium was added on days 1, 2, 4, 7, and 9. Control tissues were treated with the 10 μl of corresponding vehicle only. On Day 11, tissues were collected and homogenized in a buffer containing 1% SDS, 50 mM EDTA, and 10 mM Tris, pH 6.8. To each homogenate, protease K (5 mg/ml) was added and incubated overnight at 45° C. Additional protease K was added and incubated for 4 hours at 45° C., followed by the addition of 0.5M sodium carbonate and 30% H2O2 and incubation at 80° C. for 30 minutes. The samples were cooled down to room temperature, and extracted with chloroform/methanol (2:1). After centrifugation at 10,000 g for 10 minutes, absorbance of the top phase was measured at 450 nm. Percent change in melanin levels in treated tissue was calculated relative to control. The average percent change in melanin relative to control of the three tissues is reported in the Table 5 in accordance with the scale: 0: <7% decrease in pigmentation level; +: between 8-14% decrease; ++: between 15-20% decrease; +++: between 21-30% decrease; ++++: >31% decrease; C=cytotoxic

human skin explants = test: Melanin production in human skin explants; assay type: cell-based; conditions: human skin explant
Experimental: The effects of test compound AV7909 on melanin levels in human skin explants were determined relative to a DMSO control and Kojic Acid benchmark.

| Compound | Tyrosinase Activity relative to Vehicle Control (Mushroom tyrosinase; concentration 0.0010%) [%] | Tyrosinase Activity relative to Vehicle Control (Mushroom tyrosinase; concentration 0.0100%) [%] | B16 Assay Percent Change Melanin Compared to Vehicle (B16 mouse melanoma cells; concentration 0.0010%) [%] | B16 Assay Percent Change Melanin Compared to Vehicle (B16 mouse melanoma cells; concentration 0.0001%) [%] | HUMAN PRIMARY MELANOCYTE PIGMENTATION ASSAY (change in melanin compared to DMSO vehicle control) ([1]; concentration 0.0001%) | HUMAN PRIMARY MELANOCYTE PIGMENTATION ASSAY (change in melanin compared to DMSO vehicle control) ([1]; concentration 0.001%) | 3D Tissue Pigmentation Assay (change in melanin compared to vehicle control) ([2]; concentration 0.05% (w/v)) | 3D Tissue Pigmentation Assay (change in melanin compared to vehicle control) ([2]; concentration 0.1% (w/v)) | 3D Tissue Pigmentation Assay (change in melanin compared to vehicle control) ([2]; concentration 0.25% (w/v)) | Pigment Production (percent change in melanin compared to DMSO vehicle control) (human skin explants; concentration 0.1%) [%] | Pigment Production (percent change in melanin compared to DMSO vehicle control) (human skin explants; concentration 0.5%) [%] | 3D Tissue Pigmentation Assay (change in melanin compared to vehicle control) ([2]; concentration 0.5% (w/v)) |
| --- | --- | --- | --- | --- | --- | --- | --- | --- | --- | --- | --- | --- |
| Sc1nnc2sc3ccccc3n12 [AV0442] | −73 | −49 | −19 |  |  |  |  |  |  |  |  |  |
| CC(C)c1nc(=S)[nH]n1-c1ccccc1 [AV1973] |  | −81 | −60 | −17 |  |  |  |  |  |  |  |  |
| S=c1nc(-c2cccs2)cn[nH]1 [AV4926] | −75 | −53 | −49 |  |  |  |  |  |  |  |  |  |
| S=c1[nH]nc(-c2ccc3c(c2)OCO3)o1 [AV5828] | −48 | −77 | −30 | −13 |  |  |  |  |  |  |  |  |
| Cn1c2ccccc2n2c(=S)[nH]nc12 [AV7533] | −74 | −70 | −63 | −31 | 0 (<10% decrease in pigmentation level) | ++ (between 31-50% decrease) | + (between 8-14% decrease) | + (between 8-14% decrease) | ++ (between 15-20% decrease) |  |  |  |
| Cc1cc(C)n(-c2ccc(=S)[nH]n2)n1 [AV7909] | −82 | −70 | −79 | −17 |  |  |  | ++ (between 15-20% decrease) | +++ (between 21-30% decrease) | −17 | −28 | ++++ (>31% decrease) |
| O=c1cc(CO)occ1O [Kojic Acid, Kojic acid (5-hydroxy-4-pyran-4-one-2-methyl), reference compound] |  |  |  |  |  |  |  |  |  | −23 |  |  |
